Laboratory results as given in patent publication US20210321645A1, “STABILIZER FOR PYRROLOQUINOLINE QUINONE, COMPOSITION COMPRISING THE SAME, AND METHOD OF STABILIZATION” (Mitsubishi Gas Chemical Company, Inc., priority 2018, published 2021).

Test: Accelerated storage test of beverages, BioPQQ recovery by HPLC
Format: physicochemical
Details: beverages stored at 60° C. (Table 5), in words
Experimental: Analysis conditions of pyrroloquinoline quinone disodium salt
HPLC Conditions: • Shimadzu LC-2010 • Column: YMC-Pack ODS-A • Detection wavelength: 259 nm • Mobile phase: 30 mM acetic acid-70 mM ammonium acetate • Column temperature: 40° C.
(Accelerated Storage Test)
The sample of Example 1 was stored under the conditions of 60° C. for 2 weeks, which are equivalent to those of room temperature for 2 years. When the stored sample was subjected to HPLC, 97% of BioPQQ was recovered.

## OC[C@@H](O)[C@@H](O)CO [Erythritol]
  stabilizing effect on BioPQQ: high stabilizing effect
